Reference: patent US10100077B2, “6-aryl-9-glycosylpurines and use thereof” (UNIVERZITA PALACKEHO V OLOMOUCI, priority 2014, dated 2018)

Assays:
[1] = tested on: skin fibroblasts BJ and keratinocytes HaCaT; assay: MTT in vitro cytotoxicity test for skin cells; type: cell-based; settings: Homo sapiens; MTT, 72 hour treatment, BJ and HaCaT, maximal concentration 50 microM
Description: MTT assay is a standard test of toxicity based on photometric measurement of the ability of metabolically active cells to reduce MTT (3-(4,5-dimethylthiazol-2-yl)-2,5-diphenyltetrazolium bromide). Using the assay, the effects of 72 hour treatments with several concentrations of the compounds (sixfold dilution, maximal concentration=50 microM) on viability of skin fibroblasts BJ and keratinocytes HaCaT were evaluated. About 5,000 cells were seeded per well of a 96-well plate 24 hours before the treatment. DMSO vehiculum was used as a negative control. After 72 hour treatment, new medium with MTT (Sigma, M2128) was added to a final concentration of 0.5 mg/ml. After 3 hours, medium was removed and resulting formazan in the cells was dissolved in DMSO. The absorbance was measured at 570 nm (640 nm reference wavelength). The IC50 values were calculated from the dose-response curves. 6-Benzylaminopurine riboside and 6-furfurylaminopurine riboside were used as positive controls they were toxic in the MTT test.

[2] = tested on: skin fibroblasts BJ and keratinocytes HaCaT; assay: SRB in vitro toxicity test; type: cell-based; settings: Homo sapiens, 72 hour treatment, maximal concentration 50 microM
Description: SRB (sulforhodamine B) assay is a standard toxicity test based on a photometric measurement of the cellular protein content after the staining with sulphorhodamine B. Using the assay, the effects of 72 hour treatments with several concentrations of the compounds (sixfold dilution, maximal concentration=50 microM) on viability of skin fibroblasts BJ and keratinocytes HaCaT were evaluated. About 5,000 cells were seeded per well of a 96-well plate 24 hours before the treatment. DMSO vehiculum was used as a negative non-toxic control. 6-benzylaminopurine riboside a 6-furfurylaminopurin riboside were used as positive toxic controls. After three days the medium was removed and the cells fixed with 10% (wt/vol) trichloroacetic acid. After the extensive washing in distilled water, 0.4% (wt/vol) solution of SRB in acetic acid was added and the fixed cells were stained for 30 minutes. The unbound stain was washed away by distilled water and the bound SRB was solubilized in unbuffered 10 mM Tris base. Absorbance was measured at 564 nm. IC50 values were calculated from dose-response curves.

BJ skin fibroblasts = assay: One-step growth curve; type: cell-based; settings: 12.5 to 100 μM, counted on 7th and 14th day
Description: The experiments were performed with BJ skin fibroblasts in 24-well tissue culture plates. About 10,000 cells in culture medium comprising DMEM with 10% FBS were seeded into the individual wells. The cells were allowed to attach for 24 hourse. The test compound was added to final concentrations in a range from 12.5 to 100 μM. DMSO vehiculum was also tested. In order to control for variability, two plate columns (A, D) were treated with DMSO vehiculum. The culture medium with the test chemicals or DMSO vehiculum was changed twice a week. Following trypsinization, the numbers of cells in 4 wells for each concentration were counted using Coulter counter on 7th and 14th day.

[3] = Calcein AM cytotoxicity assay, MCF-7; type: cell-based; settings: human, MCF-7 breast cancer cells
Source text: (§1) One of the parameters used as the base for cytotoxic analysis is metabolic activity of viable cells, such as microtiter assay, which uses the Calcein AM, is now widely used to quantitate cell proliferation and cytotoxicity. The quantity of reduced Calcein AM corresponds to the number of viable cells in culture. The cell lines of breast cancer (MCF-7), mousse fibroblasts (NIH3T3), human erythromleukemia (K562) were used for routine screening of cytotoxicity of the compounds. The cells were maintened in Nunc/Corning 80 cm^2 plastic bottles and grown in media for cell culture (DMEM containing 5 g/l of glucose, 2 mM of glutamin, 100 U/ml of penicilin, […] of streptomycin, 10% of fetal bovine serum and sodium hydrogencarbonate). Cell suspensions were diluted according to cell types and according to expected final cell density (10^4 of cells per well according to characteristics of cell growth), pipetted 80 μl of cell suspension on 96-well microtiter plates. Innoculates were stabilized by 24 hrs preincubation at 37° C. in CO2. Particular concentrations of tested compounds were added in time zero as 20 μl aliquotto wells of microtiter plates. Usually, the compounds were diluted into six concentrations in four-fold dilution series. In routine testing, the highest well concentration was 166.7 μM, of change dependent on the substance. All drug concentrations were examined in duplicates. The incubation of cells with tested derivatives lasted 72 hrs at 37° C., 100% humidity and in the atmosphere of CO2. At the end of the incubation period, the cells were tested and analysed according to the addition of Calcein AM (Molecular probes) solution and the incubation lasted for next 1 hour. Fluorescence (FD) was measured using Labsystem FIA reader Fluorskan Ascent (Microsystems). The survival of tumor cells (The tumor cell survival-TCS) was counted according to equation: […]=(FDwell with derivative/FDcontrol well)×100%. The value of GI50, that is equal to the concentration of compound at which 50% of tumour cells are terminated. To evaluate the antitumor activity was tested toxicity of new derivatives on panel of cell lines of different histogenetic and species origin (Tab. 7, G150 concentration given in μM). […] Effective derivatives killed tumor cells in concentrations close to 0.1 to 50. None of the newly prepared compounds only reached the value.

[4] = Calcein AM cytotoxicity assay, K562; type: cell-based, human; settings: human, K562 erythroleukemia cells
Source text: as §1

[5] = Calcein AM cytotoxicity assay, NIH3T3; type: cell-based, mouse; settings: mouse, NIH3T3 fibroblasts
Source text: as §1

[6] = tested on: Vaccinia virus and Herpes simplex virus; settings: cited from earlier work

In the case of `OC[C@H]1O[C@@H](n2cnc3c(NCc4ccccc4)ncnc32)[C@@H](O)[C@@H]1O` [6-benzylamino-9-β-D-arabinofuranosylpurine], the IC50 [1] is reported as over 50 µM, the IC50 [2] is reported as over 50 µM and the “influence on cell viability (cell numbers, growth curve)” value (BJ skin fibroblasts) is reported as “did not have a negative influence on cell viability”. For the same molecule, the GI50 at 72 h [3] was over 100 µM, the GI50 at 72 h [4] was over 100 µM and the GI50 at 72 h [5] was over 100 µM. For the same molecule, the “activity in killing Vaccinia virus and Herpes simplex virus” value [6] was “No effect”.
